The test deals with T1, DP receptor (Homo sapiens, UniProt Q13258).
T1 construct: the human cell line LS174T, which expresses the endogenous DP receptor; endogenous in cells; host or cells: LS174T (human cell line)
T1 sequence (Q13258 1-359): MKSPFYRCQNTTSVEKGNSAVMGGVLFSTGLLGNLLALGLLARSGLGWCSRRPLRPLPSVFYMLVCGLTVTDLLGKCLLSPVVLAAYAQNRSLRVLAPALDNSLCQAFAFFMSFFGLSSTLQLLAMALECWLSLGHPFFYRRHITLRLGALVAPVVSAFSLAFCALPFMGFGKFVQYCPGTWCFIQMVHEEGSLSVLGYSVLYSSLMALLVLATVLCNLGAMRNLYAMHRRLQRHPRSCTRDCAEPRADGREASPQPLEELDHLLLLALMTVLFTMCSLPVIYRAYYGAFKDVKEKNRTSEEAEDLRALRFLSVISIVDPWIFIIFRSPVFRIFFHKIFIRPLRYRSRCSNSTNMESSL
The test is described as follows: SPA cAMP assay in human LS174 T cells (human DP functional assay). Format: cell-based. The following applies: concentration of the compound producing 50% inhibition in the SPA cAMP assay in human LS174 T cells; PGD2 15 nM final. From the text: As used in the examples and preparations that follow, as well as the rest of the application, the terms used therein shall have the meanings indicated: “kg” refers to kilograms, “g” refers to grams, “mg” refers to milligrams, “μg” refers to micrograms, “mol” refers to moles, “mmol” refers to millimoles, “M” refers to molar, “mM” refers to millimolar, “μM” refers to micromolar, “nM” refers to nanomolar, “L” refers to liters, “mL” or “ml” refers to milliliters, “μL” refers to microliters, “° C.” refers to degrees Celsius, “mp” or “m.p.” refers to melting point, “bp” or “b.p.” refers to boiling point, “mm of Hg” refers to pressure in millimeters of mercury, “cm” refers to centimeters, “nm” refers to nanometers, “abs.” refers to absolute, “conc.” refers to concentrated, “c” refers to concentration in g/mL, “rt” refers to room temperature, “TLC” refers to thin layer chromatography, “HPLC” refers to high performance liquid chromatography, “i.p.” refers to intraperitoneally, “i.v.” refers to intravenously, “s”=singlet, “d”=doublet; “t”=triplet; “q”=quartet; “m”=multiplet, “dd”=doublet of doublets; “br”=broad, “LC”=liquid chromatograph, “MS”=mass spectrograph, “ESI/MS”=electrospray ionization/mass spectrograph, “RT”=retention time, “M”=molecular ion, “PSI”=pounds per square inch, “DMSO”=dimethyl sulfoxide, “DMF”=N,N-dimethylformamide, “CDI”=1,1′-carbonyldiimidazole, “DCM” or “CH2Cl2”=dichloromethane, “HCl”=hydrochloric acid, “SPA”=Scintillation Proximity Assay, “ATTC”=American Type Culture Collection, “FBS”=Foetal Bovine Serum, “MEM”=Minimal Essential Medium, “CPM”=Counts Per Minute, “EtOAc”=ethyl acetate, “PBS”=Phosphate Buffered Saline, “TMD”=transmembrane domain, “IBMX”=3-isobutyl-1-methylxanthine, “cAMP”=cyclic adenosine monophosphate, “IUPAC”=International Union of Pure and Applied Chemistry, “MHz”=megahertz, “PEG”=polyethylene glycol, “MeOH”=methanol, “N”=normality, “THF”=tetrahydrofuran, “h”=hours, “min”=minute(s), “MeNH2”=methyl amine, “N2”=nitrogen gas, “iPrOH”=isopropyl alcohol, “O.D.”=outer diameter, “MeCN” or “CH3CN”=acetonitrile, “Et2O”=ethyl ether, “TFA”=TFA, “Prep LC”=preparatory “flash” liquid chromatography, “SPE”=solid phase extraction, “LAH”=lithium aluminum hydride, “pmol”=picomolar, “heptane”=n-heptane, “HMBA-AM” resin=4-hydroxymethylbenzoic acid amino methyl resin, “PdCl2(dppf)2”=1,1′-bis(diphenylphosphino)ferrocene-palladium (II) dichloride DCM complex, “HBTU”=2-(1H-benzotriazol-1yl)-1,1,3,3-tetramethyluronium hexafluorophosphate, “DIEA”=diisopropylethylamine, “CsF”=cesium fluoride, “LiOH”=lithium hydroxide, “˜”=approximately, “IC50”=the concentration of the compound producing 50% inhibition in the SPA cAMP assay in human LS174 T cells.
The inhibitory effects of the compounds according to the invention are assessed in a human DP functional assay. A cAMP assay is employed using the human cell line LS174T, which expresses the endogenous DP receptor. The protocol is similar to that described previously (Wright D H, Ford-Hutchinson A W, Chadee K, Metters K M, The human prostanoid DP receptor stimulates mucin secretion in LS174T cells, Br J Pharmacol. 131(8):1537-45 (2000)).
Protocol for SPA cAMP Assay in Human LS174 T Cells
• PGD2 (Cayman Chemical Cat#12010) • IBMX (Sigma Cat# 5879) • cAMP SPA direct screening assay system (Amersham code RPA 559) • 96-well cell plates (Wallac Cat#1450-516) • Wallac 1450 Microplate Trilux scintillation counter (PerkinElmer) • Plate sealers • Eppendorf tubes • Dulbecco's Phosphate-Buffered Saline (PBS) (Invitrogen Cat#14040-133) • Distilled water • Vortex • Magnetic stirrer and stirrer bars
Add 50 μL of […] IBMX into 100 mL PBS to make a final concentration of 100 μM and sonicate at 30° C. for 20 minutes.
Dissolve 1 mg PGD2 (FW, 352.5) in 284 μL DMSO to make 10 mM stock solution and store at […]. Before each assay, it is freshly prepared. Add 3 μL of 10 mM stock solution to […], mix it thoroughly, and transfer 10 mL to 40 mL PBS. […]
`O=C(O)Cc1c(-c2ccc(Cl)c(S(=O)(=O)NCc3ccc(Cl)cc3Cl)c2)[nH]c2ccccc12` [Example 1(a), {2-[4-Chloro-3-(2,4-dichloro-benzylsulfamoyl)-phenyl]-1H-indol-3-yl}-acetic Acid] yielded an IC50 of 4 nM.
Next, `O=C(O)Cc1c(-c2ccc(Cl)c(S(=O)(=O)NCc3c(Cl)cccc3Cl)c2)[nH]c2ccccc12` [Example 1(b), {2-[4-Chloro-3-(2,6-dichloro-benzylsulfamoyl)-phenyl]-1H-indol-3-yl}-acetic Acid]: 3 nM.
As to `O=C(O)Cc1c(-c2ccc(Cl)c(S(=O)(=O)NCc3cc(Cl)cc(Cl)c3)c2)[nH]c2ccccc12` [Example 1(c), {2-[4-Chloro-3-(3,5-dichloro-benzylsulfamoyl)-phenyl]-1H-indol-3-yl}-acetic Acid], 12 nM corresponded to half-maximal inhibition (IC50).
For `O=C(O)Cc1c(-c2ccc(Cl)c(S(=O)(=O)NCCc3ccc(Cl)cc3Cl)c2)[nH]c2ccccc12` [Example 1(d), (2-{4-Chloro-3-[2-(2,4-dichloro-phenyl)-ethylsulfamoyl]-phenyl}-1H-indol-3-yl)-acetic Acid], inhibition was half-maximal at 2 nM (IC50).
Next, `COc1ccccc1CCNS(=O)(=O)c1cc(-c2[nH]c3ccccc3c2CC(=O)O)ccc1Cl` [Example 2(a), (2-{4-Chloro-3-[2-(2-methoxy-phenyl)-ethylsulfamoyl]-phenyl}-1H-indol-3-yl)-acetic Acid]: 3.8 nM.
Next, `COc1cccc(CCNS(=O)(=O)c2cc(-c3[nH]c4ccccc4c3CC(=O)O)ccc2Cl)c1` [Example 2(b), (2-{4-Chloro-3-[2-(3-methoxy-phenyl)-ethylsulfamoyl]-phenyl}-1H-indol-3-yl)-acetic Acid]: 3.3 nM.
Next, `COc1ccc(CCNS(=O)(=O)c2cc(-c3[nH]c4ccccc4c3CC(=O)O)ccc2Cl)cc1` [Example 2(c), (2-{4-Chloro-3-[2-(4-methoxy-phenyl)-ethylsulfamoyl]-phenyl}-1H-indol-3-yl)-acetic Acid]: 3 nM.
As for `O=C(O)Cc1c(-c2ccc(Cl)c(S(=O)(=O)NCCc3ccccc3OC(F)(F)F)c2)[nH]c2ccccc12` [Example 2(d), (2-{4-Chloro-3-[2-(2-trifluoromethoxy-phenyl)-ethylsulfamoyl]-phenyl}-1H-indol-3-yl)-acetic Acid], inhibition was half-maximal at 20 nM (IC50).
Turning to `O=C(O)Cc1c(-c2ccc(Cl)c(S(=O)(=O)NCCCc3ccccc3)c2)[nH]c2ccccc12` [Example 2(f), {2-[4-Chloro-3-(3-phenyl-propylsulfamoyl)-phenyl]-1H-indol-3-yl}-acetic Acid], the IC50 amounted to 7 nM.
Compound `CNC(=O)Cc1c(-c2ccc(Cl)c(S(=O)(=O)NC3CCCCC3)c2)[nH]c2ccccc12` [Example 3, 2-[2-(4-Chloro-3-cyclohexylsulfamoyl-phenyl)-1H-indol-3-yl]-N-methyl-acetamide] showed an IC50 of 509 nM.
The figure for `O=C(O)Cc1c(-c2ccc(Cl)c(S(=O)(=O)NC3CCCCC3)c2)[nH]c2cccc(Cl)c12` [Example 4, [4-Chloro-2-(4-chloro-3-cyclohexylsulfamoyl-phenyl)-1H-indol-3-yl]-acetic Acid] is 0.2 nM; for `O=C(O)Cc1c(-c2ccc(Cl)c(S(=O)(=O)NC3CCCCC3)c2)[nH]c2cccc(F)c12` [Example 6, [2-(4-Chloro-3-cyclohexylsulfamoyl-phenyl)-4-fluoro-1H-indol-3-yl]-acetic Acid] it is 0.7 nM; for `Cc1cccc2[nH]c(-c3ccc(Cl)c(S(=O)(=O)NC4CCCCC4)c3)c(CC(=O)O)c12` [Example 7, [2-(4-Chloro-3-cyclohexylsulfamoyl-phenyl)-4-methyl-1H-indol-3-yl]-acetic Acid] it is 1.5 nM.
Next, `O=C(O)Cc1c(-c2ccc(Cl)c(S(=O)(=O)NC3CCCCC3)c2)[nH]c2c(Cl)cccc12` [Example 8, [7-Chloro-2-(4-chloro-3-cyclohexylsulfamoyl-phenyl)-1H-indol-3-yl]-acetic Acid]: 3.7 nM; `CS(=O)(=O)NC(=O)Cc1c(-c2ccc(Cl)c(S(=O)(=O)NC3CCCCC3)c2)[nH]c2ccccc12` [Example 9, 2-Chloro-N-cyclohexyl-5-[3-(2-methanesulfonylamino-2-oxo-ethyl)-1H-indol-2-yl]-benzenesulfonamide]: 2 nM; `CCS(=O)(=O)NC(=O)Cc1c(-c2ccc(Cl)c(S(=O)(=O)NC3CCCCC3)c2)[nH]c2ccccc12` [Example 10, 2-Chloro-N-cyclohexyl-5-[3-(2-ethanesulfonylamino-2-oxo-ethyl)-1H-indol-2-yl]-benzenesulfonamide]: 2.7 nM.
Next, `O=C(Cc1c(-c2ccc(Cl)c(S(=O)(=O)NC3CCCCC3)c2)[nH]c2ccccc12)NS(=O)(=O)C(F)(F)F` [Example 11, 2-Chloro-N-cyclohexyl-5-[3-(2-oxo-2-trifluoromethanesulfonylamino-ethyl)-1H-indol-2-yl]-benzenesulfonamide]: 14 nM; `O=C(Cc1c(-c2ccc(Cl)c(S(=O)(=O)NC3CCCCC3)c2)[nH]c2ccccc12)Nc1nnn[nH]1` [Example 12, 2-[2-(4-Chloro-3-cyclohexylsulfamoyl-phenyl)-1H-indol-3-yl]-N-(1H-tetrazol-5-yl)-acetamide]: 15 nM.
The compound `CCc1ccc(-c2[nH]c3ccccc3c2CC(=O)O)cc1S(=O)(=O)NC1CCCCC1` [Example 13, [2-(3-cyclohexylsulfamoyl-4-ethyl-phenyl)-1H-indol-3-yl]-acetic Acid] displayed an IC50 of 0.5 nM.
Next, `CC(C(=O)O)c1c(-c2ccc(Cl)c(S(=O)(=O)NC3CCCCC3)c2)[nH]c2ccccc12` (stereo not shown) [Example 14, 2-[2-(4-Chloro-3-cyclohexylsulfamoyl-phenyl)-1H-indol-3-yl]-propionic Acid]: 5.3 nM; `O=C(O)Cc1c(-c2ccc(Cl)c(S(=O)(=O)Cc3cccc(Cl)c3)c2)[nH]c2ccccc12` [Example 15, {2-[4-Chloro-3-(3-chloro-phenylmethanesulfonyl)-phenyl]-1H-indol-3-yl}-acetic Acid]: 106 nM; `O=C(O)Cc1c(-c2ccc(Cl)c(NS(=O)(=O)Cc3cccc(Cl)c3)c2)[nH]c2ccccc12` [Example 16, {2-[4-Chloro-3-(3-chloro-phenylmethanesulfonylamino)-phenyl]-1H-indol-3-yl}-acetic Acid]: 12 nM.

Values taken from patent US20090176804A1, “2-PHENYL-INDOLES AS PROSTAGLANDIN D2 RECEPTOR ANTAGONISTS” (priority 2006, published 2009).
